From patent publication US20120157439A1, “RAF INHIBITOR COMPOUNDS AND METHODS OF USE THEREOF” (GENENTECH, INC., priority 2009, published 2012)
Like-named read-outs stand apart in the source and are kept apart here.

Molecular target: T1, V600E full-length B-Raf (Homo sapiens, UniProt P15056, V600E)
T1 construct: 1 μM FSBA-MEK and 20 nM V600E full-length B-Raf; made in house; host or cells: sf9 insect cells (baculovirus)
Test: B-Raf IC50 Assay (B-RAF V600E inhibition assay, Example A)
Format: biochemical
Method in brief: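 Full-length V600E B-Raf (20 nM, from Sf9 baculovirus) was preincubated 15 min with 1 μM FSBA-modified wild-type MEK in pH 7.2 Pipes/KCl/MgCl2 buffer, then started with 4 μM ATP plus [γ-33P]ATP. After 60 min at 22 °C, TCA-quenched product was filter-captured and 33P incorporation counted by scintillation.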

[1] = B-Raf V600E assay of Example A: less than 100 nM, read-out: IC50
[2] = B-Raf V600E assay of Example A: less than about 1 μM, read-out: IC50
[3] = incorporation of radio labeled phosphate from [γ-33P]ATP into FSBA-modified wild-type MEK, 4 μM ATP, 20 nM V600E full-length B-Raf, 60-minute incubation, 22° C., read-out: BRAF V600E IC50

T1 sequence (P15056 whole entry V600E): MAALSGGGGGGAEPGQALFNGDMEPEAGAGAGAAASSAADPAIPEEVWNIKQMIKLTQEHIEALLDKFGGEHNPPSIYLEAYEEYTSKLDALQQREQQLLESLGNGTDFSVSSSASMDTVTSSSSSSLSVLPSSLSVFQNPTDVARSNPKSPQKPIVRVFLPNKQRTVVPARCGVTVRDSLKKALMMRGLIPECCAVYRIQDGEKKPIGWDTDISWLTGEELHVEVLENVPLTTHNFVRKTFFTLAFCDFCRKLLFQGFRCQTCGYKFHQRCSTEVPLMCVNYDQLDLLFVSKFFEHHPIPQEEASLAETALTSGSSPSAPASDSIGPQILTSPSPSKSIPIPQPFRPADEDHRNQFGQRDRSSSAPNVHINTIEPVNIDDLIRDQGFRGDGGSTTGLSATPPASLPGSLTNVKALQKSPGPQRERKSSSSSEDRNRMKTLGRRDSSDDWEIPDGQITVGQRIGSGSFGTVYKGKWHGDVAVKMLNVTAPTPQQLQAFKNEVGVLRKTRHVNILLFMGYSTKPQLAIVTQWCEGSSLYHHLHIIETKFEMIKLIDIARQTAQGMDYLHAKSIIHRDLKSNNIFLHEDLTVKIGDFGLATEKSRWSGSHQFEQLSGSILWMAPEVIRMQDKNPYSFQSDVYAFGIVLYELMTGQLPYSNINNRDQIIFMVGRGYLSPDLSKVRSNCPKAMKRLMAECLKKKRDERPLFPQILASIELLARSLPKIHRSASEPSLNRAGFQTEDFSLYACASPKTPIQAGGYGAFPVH

SMILES	IC50 [1] [nM]	IC50 [2] [nM]	IC50 [3] [nM]
CCCS(=O)(=O)Nc1ccc(F)c(NC(=O)c2csc3c(Nc4cnn(C)c4)ncnc23)c1F [Example 61, 4-(1-Methyl-1H-pyrazol-4-ylamino)-thieno[3,2-d] pyrimidine-7-carboxylic acid [2,6-difluoro-3-(propane-1-sulfonylamino)-phenyl]-amide]	< 100	< 1000	1.7
CCCS(=O)(=O)Nc1ccc(Cl)c(NC(=O)c2csc3c(NCC(F)(F)F)ncnc23)c1Cl [Example 78, 4-(2,2,2-Trifluoro-ethylamino)-thieno[3,2-d] pyrimidine-7-carboxylic acid [2,6-dichloro-3-(propane-1-sulfonyl-amino)-phenyl]-amide]	< 100	< 1000	11.7
Nc1ncnc2c(C(=O)Nc3c(F)ccc(NS(=O)(=O)c4ccco4)c3F)csc12 [Example 12, 4-Amino-thieno[3,2-d]pyrimidine-7-carboxylic acid[2,6-difluoro-3-(furan-2-sulfonylamino)-phenyl]-amide]	< 100	< 1000	0.22
CCCS(=O)(=O)Nc1ccc(Cl)c(NC(=O)c2csc3c(NC4CCCCC4)ncnc23)c1Cl [Example 81, 4-Cyclohexyl-amino-thieno [3,2-d] pyrimidine-7-carboxylic acid [2,6-dichloro-3-(propane-1-sulfonyl-amino)-phenyl]-amide]	–	< 1000	110

Results, then the molecule that gave them:

IC50 [1] [nM]	IC50 [2] [nM]	IC50 [3] [nM]	SMILES
–	< 1000	177	CCCS(=O)(=O)Nc1ccc(F)c(NC(=O)c2csc3c(NCCOC)ncnc23)c1F [Example 60, 4-(2-Methoxy-ethylamino)-thieno[3,2-d] pyrimidine-7-carboxylic acid [2,6-difluoro-3-(propane-1-sulfonylamino)-phenyl]-amide]
< 100	< 1000	85.5	CCCS(=O)(=O)Nc1ccc(F)c(NC(=O)c2csc3c(C)ncnc23)c1F [Example 40, 4-Methyl-thieno[3,2-d]pyrimidine-7-carboxylic acid [2,6-difluoro-3-(propane-1-sulfonylamino)-phenyl]-amide]
< 100	< 1000	12.8	CCCS(=O)(=O)Nc1ccc(F)c(NC(=O)c2csc3c(NCC(C)C)ncnc23)c1F [Example 57, 4-Isobutylamino-thieno[3,2-d] pyrimidine-7-carboxylic acid [2,6-difluoro-3-(propane-1-sulfonylamino)-phenyl]-amide]
